Experimental data as given in US20200121605A1, “METHODS AND COMPOSITIONS FOR LOCALIZED INTRADUCTAL DRUG DELIVERY TO THE BREAST AND REGIONAL LYMPH NODES” (South Dakota Board of Regents, priority 2018, published 2020).
Blank lines part the entries; values can stand above or below the compound they belong to.

Assays:
[1] = rat, in vivo
Description: (§1) For In vivo studies, the levels of 4-hydroxytamoxifen and endoxifen were measured using LC-MS.
(§2) The tissues were mixed with TRIS HCl buffer (1 ml/mg) and homogenized at 6000 rpm for 3 minutes under ice. For lymph nodes, sonication (45% amplitude in pulse mode 1 sec on and 1 sec off for 2 minutes under ice) was used to homogenize the tissue. From this, 200 μl of tissue homogenate was mixed with 800 μl of acetonitrile to precipitate proteins (1:4 v/v). This was then vortexed for 1-2 minutes followed by sonication for 3 minutes. The plasma was then centrifuged at 10,000 rpm at 4° C. for 10 minutes. The supernatant was collected and evaporated to dryness under gentle stream of Argon. The residue was then reconstituted with 100 μl of Ammonium Formate, pH 3.5: Acetonitrile (7:3 v/v). This was vortexed for 1 minute followed by sonication for 2 minutes. The reconstituted mixture was centrifuged at 10,000 rpm for 10 minutes at 4° C. The supernatant was collected and 15 μl was injected into LC-MS to determine drug levels.

[2] = design: species or system rats; settings: rat, in vivo
Description: as §1, §2

[3] = Plasma levels of tamoxifen and metabolites after intraductal injection of tamoxifen formulations (LC-MS); format: in vivo
Description: (§3) For In vivo studies, the levels of Tamoxifen and two major metabolites 4-hydroxytamoxifen (4HT) and endoxifen (EDX) were measured using LC-MS. (Liquid chromatography-Mass spectroscopy)
For determining drug levels in plasma, 100 μl of plasma was mixed with 400 μl of acetonitrile to precipitate proteins (1:4 v/v). This was then vortexed for 1-2 minutes followed by sonication for 3 minutes. The plasma was then centrifuged at 10,000 rpm at 4° C. for 10 minutes. The supernatant was collected and evaporated to dryness under gentle stream of Argon. The residue was then reconstituted with 100 μl of ammonium formate, (pH 3.5): acetonitrile (7:3 v/v). This was vortexed for 1 minute followed by sonication for 2 minutes. The reconstituted mixture was centrifuged at 10,000 rpm for 10 minutes at 4° C. The supernatant was collected and 15 μl was injected into LC-MS to determine drug levels.

[4] = Breast (mammary gland) concentration of tamoxifen and 4-hydroxytamoxifen after intraductal injection; format: in vivo
Description: as §3
(§4) The mammary gland and all the other vital organs (liver, spleen, kidney, lungs, heart, and uterus) were weighed and washed with PBS to remove blood. The tissues were mixed with TRIS HCl buffer (1 ml/mg) and homogenized at 6000 rpm for 3 minutes under ice. For lymph nodes, sonication (45% amplitude in pulse mode 1 sec on and 1 sec off for 2 minutes under ice) was used for homogenization. From this, 200 μl of tissue homogenate was mixed with 800 μl of acetonitrile (1:4 v/v) for protein precipitation. This was vortexed for 1-2 minutes followed by sonication for 3 minutes. The homogenate was centrifuged at 10,000 rpm at 4° C. for 10 minutes. The supernatant was collected and evaporated to dryness under gentle stream of Argon. The residue was reconstituted with 100 μl of ammonium formate (pH 3.5): acetonitrile (7:3 v/v). This was vortexed for 1 minute followed by sonication for 2 minutes. The reconstituted mixture was centrifuged at 10,000 rpm for 10 minutes at 4° C. The supernatant was gently removed and 15 μl was injected into LC-MS for quantification.

[5] = Organ distribution of tamoxifen PLGA formulations; format: in vivo; settings: end of the treatment
Description: as §3, §4

[6] = Intraductal retention of Cy5.5 labelled PLGA formulations, whole body imaging; format: in vivo, Female SD rats
Description: Female SD rats were anesthetized using isoflurane and the hair around the nipple region was removed using hair removing cream. The keratin plug from the inguinal mammary gland (5th or 6th nipple from the head) was removed gently holding the nipple using tweezers and wiping with 70% alcohol.
For microspheres and nanoparticles, around 0.5 to 1.5 mg particles was dispersed in PBS containing 0.5% w/v Tween 80 and vortexed for 30-60 seconds. For In situ implants, 50-100 μl of gel containing an equivalent amount of Cy5.5 was used. After dilation of the nipple orifice, 50-100 μl of the formulation was injected intraductally into the inguinal mammary glands using 27-31 G needle under a surgical microscope.
The animals were imaged using Bruker in Vivo Xtreme II optical imaging system at predetermined time points (0 to 96 hours) to study the distribution of the carrier system in the breast. Following instrument settings were used: Excitation/Emission: 690/750 nm; Bin: 1×1 pixels; Exposure time: 20 seconds, f-stop: 1.2, FOV: 19. Fluorescence intensities were plotted against time by choosing a constant ROI around the injected mammary gland and subtracting the fluorescence intensity from the contralateral mammary gland.

[7] = Imaging of regional (axillary) lymph nodes after intraductal injection; format: in vivo, female Sprague Dawley rats
Description: Intraductal injection was performed following the method described in the previous section. Regional lymph nodes (Axillary lymph node) were identified and dissected at 2 hours, 24 hours and 48 hours after intraductal injection. The lymph nodes were then imaged using whole body animal imaging system to determine the localization of formulation in the lymph nodes.

[8] = breast (mammary gland), tamoxifen in breast
[9] = intraductal retention, Cy 5.5 fluorescence intensity profile, 0 to 96 hours

retention in the mammary gland, in words [1]: very low levels
4 hydroxy tamoxifen in the tissues [2]: undetectable
systemic exposure of endoxifen in all the tissues [2]: higher systemic exposure
Compound: 4-hydroxytamoxifen [Free 4-hydroxy tamoxifen]

Compound: CC/C(=C(\c1ccccc1)c1ccc(OCCN(C)C)cc1)c1ccccc1 [Free TMX, tamoxifen]
duration of detectable plasma tamoxifen [3]: 3 days
AUC ([3]; Tamoxifen in plasma): 116 ± 43.3 ng·h/mL
AUMC ([3]; Tamoxifen in plasma): 4546.37 ± 466.103 ng · hr^2/ml
Cmax ([3]; Tamoxifen in plasma): 8.9 ± 1.55 ng/mL
MRT ([3]; Tamoxifen in plasma): 47.7 ± 3.15 h
Tmax ([3]; Tamoxifen in plasma): 0.3 h
half-life ([3]; Tamoxifen in plasma): 19.5 ± 4.24 h
ke ([3]; Tamoxifen in plasma): 0.015 ± 0.002 h⁻¹
not retained in the mammary glands after [4]: 3 days
retained in the mammary gland for only [4]: 72 h
AUC [4, 8]: 125000 ± 3690 ng·h/mL
Cmax [4, 8]: 4370 ± 67.7 ng/mL
MRT [4, 8]: 26.5 ± 4.3 h
Tmax [4, 8]: 12 h
half-life [4, 8]: 14.87 ± 0.04 h
ke ([4]; tamoxifen in breast): 0.020 ± 0.0005
uterine exposure of tamoxifen and metabolites [5]: resulted in uterine exposure

no fluorescence signals recorded after ([6]; breast ducts, non-invasive imaging): 4 h
k [6, 9]: 0.40 ± 0.03 h⁻¹
t1/2 (retention half-life) [6, 9]: 1.70 ± 0.16 h
localization (fluorescence) in the axillary lymph nodes up to [7]: ≤ 1 h
Compound: Cy 5.5
